A value given as a limit tells only on which side of the number the result lay.

The experiment concerns Lone star tick larvae (Amblyomma americanum). Briefly: In Vitro Larval Immersion Microassay (LIM). The following applies: read-out: % Efficacy (percent larval mortality).

With `FC(F)(F)C1(c2cc(Cl)cc(Cl)c2)CC(c2cc3cccnc3s2)=NO1` (stereo not drawn) [Example 232, 2-[5-(3,5-Dichloro-phenyl)-5-tri-fluoromethyl-4,5-dihydro-isoxazol-3-yl]-thieno[2,3-b] pyridine], the mortality at 300 µM was at least 80%.
With `FC(F)(F)C1(c2cc(Cl)cc(Cl)c2)CC(c2cc3ccccc3s2)=NO1` (stereo not drawn) [Example 233, 3-(benzo[b]thio-phen-2-yl)-5-(3,5-dichlorophenyl)-5-(trifluoromethyl)-4,5-dihydroisoxazole] the figure was at least 80%; with `Cc1ccc2sc(C3=NOC(c4cc(Cl)cc(Cl)c4)(C(F)(F)F)C3)cc2c1` (stereo not drawn) [Example 236, 5-(3,5-dichloro-phenyl)-3-(5-methyl-benzo[b]thiophen-2-yl)-5-(trifluoro-methyl)-4,5-dihydro-isoxazole], at least 80%.
For the compound `FC(F)(F)C1(c2cc(Cl)cc(Cl)c2)CC(c2cc3cc(Cl)ccc3s2)=NO1` (stereo not drawn) [Example 237, 3-(5-chlorobenzo [b]thiophen-2-yl)-5-(3,5-dichloro-phenyl)-5-(trifluoro-methyl)-4,5-dihydroisoxazole], the mortality at 300 µM is at least 80%.
Then `O=C(CNC(=O)c1cnc2sc(C3=NOC(c4cc(Cl)cc(Cl)c4)(C(F)(F)F)C3)cc2c1)NCC(F)(F)F` (stereo not drawn) [Example 240, 2-(5-(3,5-dichlorophenyl)-5-(trifluoromethyl)-4,5-dihydroisoxazol-3-yl)-N-(2-oxo-2-(2,2,2-trifluoroethylamino)ethyl)thieno[2,3-b]pyridine-5-carboxamide], with at least 80%.
Then `O=C(N[C@@H]1CCNC1=O)c1cnc2sc(C3=NOC(c4cc(Cl)cc(Cl)c4)(C(F)(F)F)C3)cc2c1` (stereo partly drawn) [Example 241, 2-(5-(3,5-dichloro-phenyl)-5-(trifluoro-methyl)-4,5-dihydro-isoxazol-3-yl)-N-((R)-2-oxopyrrolidin-3-yl)thieno[2,3-b] pyridine-5-carboxamide], with at least 80%; and `O=C(CNC(=O)c1sc(C2=NO[C@@](c3cc(Cl)c(F)c(Cl)c3)(C(F)(F)F)C2)c2c1CCC2)NCC(F)(F)F` [Example 243, (S)-3-(5-(3,5-dichloro-4-fluorophenyl)-5-(trifluoromethyl)-4,5-dihydroisoxazol-3-yl)-N-(2-oxo-2-(2,2,2-trifluoroethylamino)ethyl)-5,6-dihydro-4H-cyclopenta[c]thiophene-1-carboxamide], with at least 80%; and `O=C(CNC(=O)c1sc(C2=NOC(c3cc(Cl)c(F)c(Cl)c3)(C(F)(F)F)C2)c2c1CCC2)NCC(F)F` (stereo not drawn) [Example 244, 3-[5-(3,5-dichloro-4-fluoro-phenyl)-5-trifluoromethyl-4,5-dihydro-isoxazol-3-yl]-5,6-dihydro-4H-cyclopenta[c]thiophene-1-carboxylic acid [(2,2-difluoro-ethylcarbamoyl)-methyl]-amide], with at least 80%.
In the case of `O=C(CNC(=O)c1sc(C2=NO[C@@](c3cc(Cl)c(F)c(Cl)c3)(C(F)(F)F)C2)c2c1CCC2)NCC(F)F` [Example 245, (S)-3-[5-(3,5-dichloro-4-fluoro-phenyl)-5-trifluoromethyl-4,5-dihydro-isoxazol-3-yl]-5,6-dihydro-4H-cyclopenta[c]thiophene-1-carboxylic acid [(2,2-difluoro-ethylcarbamoyl)-methyl]-amide], the mortality at 300 µM is at least 80%.
As to `O=C(CNC(=O)c1sc(C2=NOC(c3cc(Cl)c(F)c(Cl)c3)(C(F)(F)F)C2)c2c1CCC2)NCCF` (stereo not drawn) [Example 246, 3-[5-(3,5-Dichloro-4-fluoro-phenyl)-5-trifluoromethyl-4,5-dihydro-isoxazol-3-yl]-5,6-dihydro-4H-cyclopenta[c]thiophene-1-carboxylic acid [(2-fluoro-ethylcarbamoyl)-methyl]-amide], the mortality at 300 µM was at least 80%.
Consider `O=C(CNC(=O)c1sc(C2=NO[C@@](c3cc(Cl)c(F)c(Cl)c3)(C(F)(F)F)C2)c2c1CCC2)NCCF` [Example 247, (S)-3-[5-(3,5-Dichloro-4-fluoro-phenyl)-5-trifluoromethyl-4,5-dihydro-isoxazol-3-yl]-5,6-dihydro-4H-cyclopenta[c]thiophene-1-carboxylic acid [(2-fluoro-ethylcarbamoyl)-methyl]-amide], for which the mortality at 300 µM is at least 80%.
With `C#CCNC(=O)CNC(=O)c1sc(C2=NO[C@@](c3cc(Cl)c(F)c(Cl)c3)(C(F)(F)F)C2)c2c1CCC2` [Example 249, (S)-3-(5-(3,5-dichloro-4-fluorophenyl)-5-(trifluoromethyl)-4,5-dihydroisoxazol-3-yl)-N-(2-oxo-2-(prop-2-ynylamino)ethyl)-5,6-dihydro-4H-cyclopenta[c]thiophene-1-carboxamide] the figure was at least 80%.

The values are drawn from patent publication US8648081B2 (Eli Lilly and Company, priority 2011, dated 2014).
